Assay [1] has as its system K562 human chronic myeloid leukaemia cells. Kind of assay: In vitro cytotoxicity, MTT assay. In kind it is cell-based. Particulars: K562, 1 hour drug exposure, MTT after 4 days. The protocol:
K562 human chronic myeloid leukaemia cells were maintained in RPM1 1640 medium supplemented with 10% fetal calf serum and 2 mM glutamine at 37° C. in a humidified atmosphere containing 5% CO2 and were incubated with a specified dose of drug for 1 hour at 37° C. in the dark. The incubation was terminated by centrifugation (5 min, 300 g) and the cells were washed once with drug-free medium. Following the appropriate drug treatment, the cells were transferred to 96-well microtiter plates (10^4 cells per well, 8 wells per sample). Plates were then kept in the dark at 37° C. in a humidified atmosphere containing 5% CO2. The assay is based on the ability of viable cells to reduce a yellow soluble tetrazolium salt, 3-(4,5-dimethylthiazol-2-yl)-2,5-diphenyl-2H-tetrazolium bromide (MTT, Aldrich-Sigma), to an insoluble purple formazan precipitate. Following incubation of the plates for 4 days (to allow control cells to increase in number by approximately 10 fold), 20 μL of MTT solution (5 mg/mL in phosphate-buffered saline) was added to each well and the plates further incubated for 5 hours. The plates were then centrifuged for 5 minutes at 300 g and the bulk of the medium pipetted from the cell pellet leaving 10-20 μL per well. DMSO (200 μL) was added to each well and the samples agitated to ensure complete mixing. The optical density was then read at a wavelength of 550 nm on a Titertek Multiscan ELISA plate reader, and a dose-response curve was constructed.
In general terms: Formazan colour is commonly taken as a measure of viable cells.

For a further assay, the system named is calf thymus DNA (CT-DNA). In words: DNA thermal denaturation (melting) studies. In kind it is binding. Particulars: CT-DNA 100 μM DNAp, compound 20 μM, 37 °C; for Induced ΔTm after incubation 0 hours: pH 7.00, 0 hours; for Induced ΔTm after incubation 4 hours: pH 7.00, 4 hours; for Induced ΔTm after incubation 18 hours: pH 7.00, 18 hours; for Induced ΔTm after incubation 72 hours: pH 7.00, 72 hours. On the procedure: The PBD agents were subjected to DNA thermal melting (denaturation) studies (Gregson, S. J., et al., Journal of Medicinal Chemistry, 44(5), 737-748 (2001); Jones, G. B., et al., Anti-Cancer Drug Design, 5(3), 249-264 (1990); McConnaughie, A. W. and; Jenkins, T. C. Journal of Medicinal Chemistry, 38(18), 3488-3501 (1995)) using calf thymus DNA (CT-DNA, type-1, highly polymerized sodium salt; 42% G+C [Sigma]) at a fixed 100 μM (DNAp=50 μM bp) concentration, determined using an extinction coefficient of 6600 (M phosphate)^−1 cm^−1 at 260 nm (Manzini, G., et al., Nucleic Acids Research, 11(24), 8861-8876 (1983)). Solutions were prepared in pH 7.00±0.01 aqueous buffer containing 10 mM NaH2PO4/Na2HPO4 and 1 mM EDTA. Working solutions containing CT-DNA and the test compound (20 μM) were incubated at 37.0±0.1° C. for 0 to 18 hours using an external water bath. Samples were monitored at 260 nm using a Varian-Cary 400 Bio spectrophotometer fitted with a Peltier heating accessory. Heating was applied at a rate of 1° C./min in the 45 to 98° C. temperature range, with optical and temperature data sampling at 200 ms intervals. A separate experiment was carried out using buffer alone, and this baseline was subtracted from each DNA melting curve before data treatment. Optical data were imported into the Origin 5 program (MicroCal Inc., Northampton, Mass.) for analysis. DNA helix→coil transition temperatures (Tm) were determined at the midpoint of the normalized melting profiles using a published analytical procedure (Jones, G. B., et al., Anti-Cancer Drug Design, 5(3), 249-264 (1990)). Results are given in table 1 as the mean±standard deviation from at least three determinations. Ligand-induced alterations in DNA melting behaviour (ΔTm) are given by ΔTm=Tm(DNA+ligand)−Tm(DNA), where the Tm value determined for free CT-DNA is 67.82±0.06° C. (averaged from >90 runs). All PBD compounds were dissolved in HPLC-grade MeOH to give working solutions containing ≦0.6% v/v MeOH; Tm results were corrected for the effects of MeOH co-solvent by using a linear correction term.
The above method was also carried out on the compounds of example 2, with all compounds being incubated for up to 72 hours.

Assay [2] deals with NF-Y binding at ICB2 of Topoisomerase IIα promoter. In words: NF-Y gel shift assay (EMSA) at ICB2. (Mobility shift assays separate free from complexed probe on a gel.)
In assay [3] the test system is 170 bp sequence of the human Topo-IIa promoter. Kind of assay: DNase I footprinting on Topo-IIa promoter (ICB1, ICB2 sites). Particulars: for Concentration at which DNA binding is observed, ICB1: ICB1 site; for Concentration at which DNA binding is observed, ICB2: ICB2 site. In kind it is binding. The protocol:
In a similar manner to Example 4, the affinity and sequence selectivity of certain compounds of examples 1 and 2 was evaluated by standard DNA footprinting on a 170 bp sequence of the human Topo-IIa promoter, in accordance with the technique described in Martin, C., et al.
Selected results are shown in FIG. 9, wherein the concentrations of the lanes were 0, 1.6, 8, 40, 200, 1000, 5000 and 25000 nM in each case.
The footprinting results allowed the identification of compounds that could potentially disrupt transcription factor binding at the ICB1 and ICB2 sites. […] These compounds are detailed below in table 3, showing the concentrations (μM) at which the PBD-heterocycle conjugates bind at ICB1 and ICB2.

Consider `COC(=O)c1cc(NC(=O)c2cc(NC(=O)c3cc(NC(=O)c4cc(NC(=O)c5cc(NC(=O)CCCOc6cc7c(cc6OC)C(=O)N6CCC[C@H]6C=N7)cn5C)cn4C)cn3C)cn2C)cn1C` [Compound 29, (11aS) Methyl 4-({4-[(4-{[4-({4-[4-(7-Methoxy-5-oxo-2,3,5,11a-tetrahydro-5H-pyrrolo[2,1-c][1,4]benzodiazepine-8-yloxy)-butyrylamino]-1-methyl-1H-pyrrole-2-carbonyl]-amino)-1-methyl-1H-pyrrole-2-carbonyl]-amino}-1-methyl-1H-pyrrole-2-carbonyl)-amino]-1-methyl-1H-pyrrole-2-carbonyl}-amino)-1-methyl-1H-pyrrole-2-carboxylate], for which the IC50 in assay [1] stood at 0.083 µM. Further, in the assay on calf thymus DNA (CT-DNA), the “Induced ΔTm after incubation 0 hours” value came to 15.1 °C, the “Induced ΔTm after incubation 4 hours” value amounted to 15.9 °C and the “Induced ΔTm after incubation 18 hours” value amounted to 17.1 °C.
Take `COC(=O)c1cc(NC(=O)c2nc(NC(=O)c3cc(NC(=O)CCCOc4cc5c(cc4OC)C(=O)N4CCC[C@H]4C=N5)cn3C)cn2C)cn1C` [Compound 71]: the “Lowest concentration at which NF-Y binding inhibition was observed” value in assay [2] was 10 µM. In addition, in assay [3], the “Concentration at which DNA binding is observed, ICB1” value was 1 µM and the “Concentration at which DNA binding is observed, ICB2” value is 5 µM. For the same molecule, in the assay with calf thymus DNA (CT-DNA), the “Induced ΔTm after incubation 0 hours” value came to 15.5 °C, the “Induced ΔTm after incubation 4 hours” value was 16.0 °C, the “Induced ΔTm after incubation 18 hours” value amounted to 16.9 °C and the “Induced ΔTm after incubation 72 hours” value is 17.2 °C.
As to `COC(=O)c1cc(NC(=O)c2csc(NC(=O)c3cc(NC(=O)CCCOc4cc5c(cc4OC)C(=O)N4CCC[C@H]4C=N5)cn3C)n2)cn1C` [Compound 73], the “Lowest concentration at which NF-Y binding inhibition was observed” value in assay [2] amounted to 10 µM. Also, in assay [3], the “Concentration at which DNA binding is observed, ICB1” value turned out to be 5 µM and the “Concentration at which DNA binding is observed, ICB2” value turned out to be 1 µM. Moreover, in the assay with calf thymus DNA (CT-DNA), the “Induced ΔTm after incubation 0 hours” value was 18.5 °C, the “Induced ΔTm after incubation 4 hours” value came out at 19.9 °C, the “Induced ΔTm after incubation 18 hours” value came to 20.7 °C and the “Induced ΔTm after incubation 72 hours” value is 20.9 °C.
For the molecule `CCOC(=O)c1nc(NC(=O)c2nc(NC(=O)c3nc(NC(=O)CCCOc4cc5c(cc4OC)C(=O)N4CCC[C@H]4C=N5)cn3C)cn2C)cn1C` [Compound 77], the “Lowest concentration at which NF-Y binding inhibition was observed” value in assay [2] was 50 µM. Besides, in the assay on calf thymus DNA (CT-DNA), the “Induced ΔTm after incubation 0 hours” value turned out to be 11.0 °C, the “Induced ΔTm after incubation 4 hours” value is 11.7 °C, the “Induced ΔTm after incubation 18 hours” value was 12.0 °C and the “Induced ΔTm after incubation 72 hours” value came out at 12.1 °C.
On to `CCOC(=O)c1nc(NC(=O)c2cc(NC(=O)c3cc(NC(=O)CCCOc4cc5c(cc4OC)C(=O)N4CCC[C@H]4C=N5)cn3C)cn2C)cn1C` [Compound 79], for which, in the assay with calf thymus DNA (CT-DNA), the “Induced ΔTm after incubation 0 hours” value amounted to 13.9 °C, the “Induced ΔTm after incubation 4 hours” value was found to be 14.8 °C, the “Induced ΔTm after incubation 18 hours” value is 15.2 °C and the “Induced ΔTm after incubation 72 hours” value was 15.5 °C.
On the same counts, the results for `CCOC(=O)c1nc(NC(=O)c2cc(NC(=O)c3nc(NC(=O)CCCOc4cc5c(cc4OC)C(=O)N4CCC[C@H]4C=N5)cn3C)cn2C)cn1C` [Compound 81] are 14.9 °C, 15.7 °C, 16.2 °C and 16.4 °C.
As for `CCOC(=O)c1csc(NC(=O)c2csc(NC(=O)c3csc(NC(=O)CCCOc4cc5c(cc4OC)C(=O)N4CCC[C@H]4C=N5)n3)n2)n1` [Compound 83], in the assay with calf thymus DNA (CT-DNA), the “Induced ΔTm after incubation 0 hours” value is 10.0 °C, the “Induced ΔTm after incubation 4 hours” value was determined as 10.7 °C, the “Induced ΔTm after incubation 18 hours” value amounted to 10.9 °C and the “Induced ΔTm after incubation 72 hours” value was 11.0 °C.
Taken in the same sequence, the figures for `CCOC(=O)c1csc(NC(=O)c2csc(NC(=O)c3cc(NC(=O)CCCOc4cc5c(cc4OC)C(=O)N4CCC[C@H]4C=N5)cn3C)n2)n1` [Compound 85] were 7.5 °C, 8.0 °C, 8.4 °C and 8.4 °C.
On the same counts, the results for `CCOC(=O)c1csc(NC(=O)c2cc(NC(=O)c3csc(NC(=O)CCCOc4cc5c(cc4OC)C(=O)N4CCC[C@H]4C=N5)n3)cn2C)n1` [Compound 87] are 6.4 °C, 6.8 °C, 7.1 °C and 7.3 °C.
Regarding `CCOC(=O)c1csc(NC(=O)c2cc(NC(=O)c3cc(NC(=O)CCCOc4cc5c(cc4OC)C(=O)N4CCC[C@H]4C=N5)cn3C)cn2C)n1` [Compound 89], in the assay on calf thymus DNA (CT-DNA), the “Induced ΔTm after incubation 0 hours” value came out at 16.8 °C, the “Induced ΔTm after incubation 4 hours” value came to 17.7 °C, the “Induced ΔTm after incubation 18 hours” value turned out to be 18.6 °C and the “Induced ΔTm after incubation 72 hours” value worked out at 18.8 °C.

Usually IC50 stands for the concentration at which inhibition is half-maximal. Read a high IC50 as a need for much substance.

These data come from patent publication US8637664B2, “Alkyl 4- [4- (5-oxo-2,3,5, 11a-tetrahydo-5H-pyrrolo [2, 1-c] [1,4] benzodiazepine-8-yloxy)-butyrylamino]-1H-pyrrole-2-carboxylate derivatives and related compounds for the treatment of a proliferative disease” (Spirogen SARL, priority 2005, dated 2014).
